Test results from patent US20150344466A1 (SUMITOMO CHEMICAL COMPANY, LIMITED, priority 2013, published 2015).

Tests used:
Type in all cases: in vivo
Culex pipiens pallens [1] = assay: Knockdown spray test on adult Culex pipiens pallens (Test Example 4); conditions: topical, 0.25 h, active ingredient 0.1% w/v, 0.5 ml sprayed, within 15 minutes, read-out: knockdown rate of the test insects within 15 minutes
Summary of the method: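 Ten adult mosquitoes in a gauze-covered cup inside a 46×46×70 cm chamber were sprayed with 0.5 ml of test solution from 30 cm at 0.4 kg/cm^2. The cup was removed at once, and knocked-down insects were counted at 2, 5 and 15 min; knockdown rate (%) = knocked-down/tested ×100.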

Aphis gossypii = assay: Soil treatment test on Aphis gossypii on cucumber (Test Example 9); conditions: 168 h, 5 ml treatment solution in contact with soil, seven days after putting insects, read-out: controlling value
Protocol: On the other hand, cucumber was planted in a polyethylene cup with a plurality of small holes on the bottom and grown until the first true leaf was spread. A cup in which cucumber was planted was put in a plastic cup with 5 ml of the test treatment solution, so that the soil in the cup was in contact with the treatment liquid. After five days, about 20Aphis gossypii were allowed to parasitize the cucumber, and seven days after putting insects, the number of Aphis gossypii was investigated, and the controlling value was calculated according to the following equation. Controlling value (%)={1−(Cb×Tai)/([…])}×100 In the equation, the symbols represent as follows. Cb: the number of insects in a non-treated section before treatment Cai: the number of insects in a non-treated section on observation Tb: the number of insects in a treated section before treatment Tai: the number of insects in a treated section on observation

Blattella germanica [2] = assay: Knockdown spray test on Blattella germanica, 0.1% w/v oil formulation (Test Example 2); conditions: topical, 0.25 h, active ingredient 0.1% w/v, 1.5 ml sprayed, within 15 minutes, read-out: knockdown rate of the test insects within 15 minutes
Summary of the method: (§1)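 Ten German cockroaches (5 males, 5 females) in a mesh-bottomed, butter-walled container were sprayed with 1.5 ml test solution from 60 cm at 0.42 kg/cm^2 inside a chamber.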

Blattella germanica [3] = assay: Knockdown spray test on Blattella germanica, 2.0% w/v oil formulation (Test Example 1); conditions: topical, 0.25 h, active ingredient 2.0% w/v, 1.5 ml sprayed, within 15 minutes, read-out: knockdown rate of the test insects within 15 minutes
Summary of the method: as §1

Musca domestica [4] = assay: Filter paper/sucrose bait death rate test on Musca domestica (Test Example 5); conditions: female imagoes of Musca domestica, 0.7 ml on filter paper, after 24 hours
Summary of the method: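 Filter paper in a 5.5 cm cup dosed with 0.7 ml test drug solution, with 30 mg sucrose as bait. Ten female adult houseflies released and cup sealed. Dead insects counted after 24 h; death rate (%) = dead/tested × 100.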

Spodoptera litura = assay: Foliar spray test on Spodoptera litura on cabbage (Test Example 11); conditions: 96 h, fourth instar larvae of Spodoptera litura on cabbage, 500 ppm spray 20 ml/cup, after 4 days, read-out: controlling value
Summary of the method: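 Cabbage is grown in cups to the third–fourth true leaf and sprayed at 20 ml/cup. Once the spray has dried, 10 fourth-instar larvae are released per cup and survivors are counted after 4 days. Controlling value (%) is corrected using pre-treatment and observation counts in treated and untreated sections.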

Plutella xylostella = assay: Foliar spray test on Plutella xylostella on cabbage (Test Example 10); conditions: 120 h, third instar larvae of Plutella xylostella on cabbage, 500 ppm spray 20 ml/cup, after five days, read-out: controlling value
Summary of the method: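 Cabbage at the third–fourth true-leaf stage sprayed with test solution at 20 ml/cup, dried, then infested with 10 third-instar larvae. Insects counted after five days; controlling value (%) calculated from treated and non-treated counts before treatment and at observation.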

Culex pipiens pallens [5] = assay: Larvicidal test on Culex pipiens pallens, one day (Test Example 6); conditions: 24 h; last-instar larvae of Culex pipiens pallens; 3.5 ppm in water; one day later; read-out: death rate
Protocol: Each of the formulations of Compounds of Present Invention (39), (63), (71), (72), (92), (93), (95), (106), (150), (171), (170), (181), (182), (183), (187), (188), (189), (190), (191), (192), (200), (201), (201), (234), (246), (290) and (299) obtained in Formulation Example 15 was diluted with water, so as to have a concentration of the active ingredient of 500 ppm, to prepare a test drug solution.
20 last-instar larvae of Culex pipiens pallens were released into a liquid to which 0.7 ml of the above test drug solution was added to 100 ml of ion-exchanged water (a concentration of the active ingredient of 3.5 ppm). One day later, the life and death of the Culex pipiens pallens was examined, and the death rate was calculated. The death rate was calculated by the following equation.
Death rate (%)=(Number of dead insects/Number of tested insects)×100

Culex pipiens pallens [6] = assay: Larvicidal test on Culex pipiens pallens, eight days (Test Example 7); conditions: 192 h; last-instar larvae of Culex pipiens pallens; 3.5 ppm in water; eight days later; read-out: death rate
Summary of the method: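 Twenty last-instar larvae placed in 100 ml ion-exchanged water containing test drug at 3.5 ppm active ingredient. Mortality scored after eight days; death rate = dead/tested × 100.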

Musca domestica [7] = assay: Knockdown spray test on adult Musca domestica (Test Example 3); conditions: topical, 0.25 h, active ingredient 2.0% w/v, 0.5 ml sprayed, within 15 minutes, read-out: knockdown rate of the test insects within 15 minutes
Summary of the method: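 Ten adult house flies (5 male, 5 female) in a gauze-covered cup sprayed with 0.5 ml test solution from 30 cm at 0.9 kg/cm^2 inside a chamber, then removed. Knocked-down flies counted at 2, 5 and 15 min and expressed as % of insects tested.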

SMILES	pest or weed control at 0.1 % strength (Culex pipiens pallens [1]) [%]	pest or weed control at 500 ppm (Aphis gossypii) [%]	also measured
O=C(NCC1CCOC1)c1cc(COc2ccc3c(c2)OCO3)on1 (centres unmarked) [(204), N-(tetrahydrofuran-3-ylmethyl)-5-(5-(1,3-benzodioxolanyl)oxymethyl)isoxazole-3-carboxamide]	≥ 80	≥ 90	pest or weed control at 0.1 % strength (Blattella germanica [2]): ≥ 80%
CCCc1cc(C(=O)NCC2CCOC2)n(C)n1 (centres unmarked) [(3), N-(tetrahydrofuran-3-ylmethyl)-1-methyl-3-propyl-1H-pyrazole-5-carboxamide]		≥ 90	
O=C(NCC1COCCO1)c1cc(COCc2ccccc2)on1 (centres unmarked) [(31)]	≥ 80	≥ 90	pest or weed control at 2 % strength (Blattella germanica [3]): ≥ 80%
O=C(NCC1CCOCC1)c1cc(COCc2ccc(F)cc2)on1 [(90), N-(tetrahydropyran-4-ylmethyl)-5-(4-fluorobenzyloxymethyl)isoxazole-3-carboxamide]	≥ 80	≥ 90	pest or weed control at 500 ppm (Musca domestica [4]): ≥ 90%; pest or weed control at 0.1 % strength (Blattella germanica [2]): ≥ 80%
O=C(NCC1CCOC1)c1cc(COc2cccc(F)c2)on1 (centres unmarked) [(194), N-(tetrahydrofuran-3-ylmethyl)-5-(3-fluorophenoxymethyl)isoxazole-3-carboxamide]	≥ 80	≥ 90	pest or weed control at 0.1 % strength (Blattella germanica [2]): ≥ 80%
O=C(NCC1CCOCC1)c1cc(COCc2ccc3c(c2)OCO3)on1 [(106), N-(tetrahydropyran-4-ylmethyl)-5-(3,4-methylenedioxybenzyloxymethyl)isoxazole-3-carboxamide]	≥ 80	≥ 90	pest or weed control at 500 ppm (Spodoptera litura): ≥ 80%; pest or weed control at 500 ppm (Plutella xylostella): ≥ 90%; pest or weed control at 3.5 ppm (Culex pipiens pallens [5]): ≥ 90%; pest or weed control at 0.1 % strength (Blattella germanica [2]): ≥ 80%; pest or weed control at 3.5 ppm (Culex pipiens pallens [6]): ≥ 90%
CCCCn1cc(C(=O)NCC2CCOC2)nn1 (centres unmarked) [(54), N-(tetrahydrofuran-3-ylmethyl)-1-butyl-1H-1,2,3-triazole-4-carboxamide]		≥ 90	pest or weed control at 500 ppm (Musca domestica [4]): ≥ 90%
O=C(NCCC1CCOC1)c1cc(COCc2ccccc2)on1 (centres unmarked) [(30), N-[2-(tetrahydrofuran-3-yl)ethyl]-5-benzyloxymethylisoxazole-3-carboxamide]	≥ 80	≥ 90	pest or weed control at 2 % strength (Musca domestica [7]): ≥ 80%; pest or weed control at 2 % strength (Blattella germanica [3]): ≥ 80%
O=C(NCC1CCOC1)c1cn(Cc2ccccc2)nn1 (centres unmarked) [(9)]		≥ 90	pest or weed control at 500 ppm (Musca domestica [4]): ≥ 90%
CCCCn1cc(C(=O)NCC2CCOC2)cn1 (centres unmarked) [(51), N-(tetrahydrofuran-3-ylmethyl)-1-butyl-1H-pyrazole-4-carboxamide]		≥ 90	
CCCCc1noc(C(=O)NCC2CCOC2)n1 (centres unmarked) [(58), N-(tetrahydrofuran-3-ylmethyl)-3-butyl-1,2,4-oxadiazole-5-carboxamide]		≥ 90	
O=C(NCC1CCOC1)c1cc(COc2ccc(OC(F)(F)F)cc2)on1 (centres unmarked) [(190), N-(tetrahydrofuran-3-ylmethyl)-5-(4-trifluoromethoxyphenoxymethyl)isoxazole-3-carboxamide]	≥ 80		pest or weed control at 500 ppm (Spodoptera litura): ≥ 80%; pest or weed control at 500 ppm (Plutella xylostella): ≥ 90%; pest or weed control at 3.5 ppm (Culex pipiens pallens [5]): ≥ 90%; pest or weed control at 0.1 % strength (Blattella germanica [2]): ≥ 80%; pest or weed control at 3.5 ppm (Culex pipiens pallens [6]): ≥ 90%
O=C(NCCC1CCOCC1)c1cc(COCc2ccccc2)on1 [(18), N-[2-(tetrahydropyran-4-yl)ethyl]-5-benzyloxymethylisoxazole-3-carboxamide]	≥ 80	≥ 90	
O=C(NC1CCOCC1)c1cc(COCc2ccccc2)on1 [(43), N-(tetrahydropyran-4-yl)-5-benzyloxymethylisoxazole-3-carboxamide]	≥ 80	≥ 90	pest or weed control at 2 % strength (Blattella germanica [3]): ≥ 80%
CCCCc1nc(C(=O)NCC2CCOC2)no1 (centres unmarked) [(57), N-(tetrahydrofuran-3-ylmethyl)-5-butyl-1,2,4-oxadiazole-3-carboxamide]		≥ 90	
O=C(NCC1CCOC1)c1cc(COCc2ccc3c(c2)OCO3)on1 (centres unmarked) [(105), N-(tetrahydrofuran-3-ylmethyl)-5-(3,4-methylenedioxybenzyloxymethyl)isoxazole-3-carboxamide]	≥ 80	≥ 90	pest or weed control at 500 ppm (Musca domestica [4]): ≥ 90%; pest or weed control at 500 ppm (Spodoptera litura): ≥ 80%; pest or weed control at 500 ppm (Plutella xylostella): ≥ 90%; pest or weed control at 0.1 % strength (Blattella germanica [2]): ≥ 80%; pest or weed control at 3.5 ppm (Culex pipiens pallens [6]): ≥ 90%
CC1(CNC(=O)c2cc(COCc3ccccc3)on2)CCOC1 (centres unmarked) [(36), N-(3-methyltetrahydrofuran-3-ylmethyl)-5-benzyloxymethylisoxazole-3-carboxamide]	≥ 80	≥ 90	pest or weed control at 2 % strength (Musca domestica [7]): ≥ 80%; pest or weed control at 2 % strength (Blattella germanica [3]): ≥ 80%
O=C(NC[C@H]1CCOC1)c1cc(COCc2ccccc2)on1 [(33), N—[(R)-tetrahydrofuran-3-ylmethyl]-5-benzyloxymethylisoxazole-3-carboxamide]	≥ 80	≥ 90	pest or weed control at 2 % strength (Musca domestica [7]): ≥ 80%; pest or weed control at 2 % strength (Blattella germanica [3]): ≥ 80%
Cn1nc(COCc2ccccc2)cc1C(=O)NCC1CCOC1 (centres unmarked) [(52), N-(tetrahydrofuran-3-ylmethyl)-3-benzyloxymethyl-1-methyl-1H-pyrazole-5-carboxamide]		≥ 90	
O=C(NC[C@@H]1CCOC1)c1cc(COCc2ccccc2)on1 [(34), N—[(S)-tetrahydrofuran-3-ylmethyl]-5-benzyloxymethylisoxazole-3-carboxamide]	≥ 80	≥ 90	pest or weed control at 2 % strength (Musca domestica [7]): ≥ 80%; pest or weed control at 500 ppm (Musca domestica [4]): ≥ 90%; pest or weed control at 2 % strength (Blattella germanica [3]): ≥ 80%
O=C(NCC1CCOC1)c1cc(CCCCCO)on1 (centres unmarked) [(142), N-(tetrahydrofuran-3-ylmethyl)-5-(5-hydroxypentyl)isoxazole-3-carboxamide]		≥ 90	
